Measured values reported in patent publication EP3502102A1, “STING INHIBITORS” (ECOLE POLYTECHNIQUE FEDERALE DE LAUSANNE (EPFL), priority 2017, dated 2019).

Legend:
TBK1 = biological target: T1, TBK1 (Homo sapiens, UniProt Q9UHD2); experiment: IFN-beta luciferase reporter in HEK293T cells transfected with TBK1; format: cell-based; details: 0.01-5µM
T1 construct: expressed in transfected cells; host or cells: HEK293T
T1 sequence (Q9UHD2 1-729): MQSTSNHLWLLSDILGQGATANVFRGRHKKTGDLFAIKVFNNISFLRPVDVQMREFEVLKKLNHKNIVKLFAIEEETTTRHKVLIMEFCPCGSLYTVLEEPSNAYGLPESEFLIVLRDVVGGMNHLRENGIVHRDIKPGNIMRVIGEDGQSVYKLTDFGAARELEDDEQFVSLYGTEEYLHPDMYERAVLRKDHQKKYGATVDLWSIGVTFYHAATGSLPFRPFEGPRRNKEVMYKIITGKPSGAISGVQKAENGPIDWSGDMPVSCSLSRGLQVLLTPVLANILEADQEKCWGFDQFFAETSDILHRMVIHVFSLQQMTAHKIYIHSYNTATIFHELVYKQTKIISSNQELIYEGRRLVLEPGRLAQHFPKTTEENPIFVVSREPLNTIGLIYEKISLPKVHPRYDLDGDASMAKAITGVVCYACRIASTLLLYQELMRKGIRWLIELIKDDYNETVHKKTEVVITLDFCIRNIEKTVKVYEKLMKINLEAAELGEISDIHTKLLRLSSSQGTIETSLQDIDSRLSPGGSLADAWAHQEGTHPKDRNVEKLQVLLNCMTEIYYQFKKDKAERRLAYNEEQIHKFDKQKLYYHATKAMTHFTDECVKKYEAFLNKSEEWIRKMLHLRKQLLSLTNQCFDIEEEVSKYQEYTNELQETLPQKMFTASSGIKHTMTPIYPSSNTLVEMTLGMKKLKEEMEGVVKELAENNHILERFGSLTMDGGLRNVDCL

RIG-I = biological target: T2, RIG-I (Homo sapiens, UniProt O95786); experiment: IFN-beta luciferase reporter in HEK293T cells transfected with RIG-I (counter-screen); format: cell-based; details: 0.01-5µM
T2 construct: expressed in transfected cells; host or cells: HEK293T
T2 sequence (O95786 1-925): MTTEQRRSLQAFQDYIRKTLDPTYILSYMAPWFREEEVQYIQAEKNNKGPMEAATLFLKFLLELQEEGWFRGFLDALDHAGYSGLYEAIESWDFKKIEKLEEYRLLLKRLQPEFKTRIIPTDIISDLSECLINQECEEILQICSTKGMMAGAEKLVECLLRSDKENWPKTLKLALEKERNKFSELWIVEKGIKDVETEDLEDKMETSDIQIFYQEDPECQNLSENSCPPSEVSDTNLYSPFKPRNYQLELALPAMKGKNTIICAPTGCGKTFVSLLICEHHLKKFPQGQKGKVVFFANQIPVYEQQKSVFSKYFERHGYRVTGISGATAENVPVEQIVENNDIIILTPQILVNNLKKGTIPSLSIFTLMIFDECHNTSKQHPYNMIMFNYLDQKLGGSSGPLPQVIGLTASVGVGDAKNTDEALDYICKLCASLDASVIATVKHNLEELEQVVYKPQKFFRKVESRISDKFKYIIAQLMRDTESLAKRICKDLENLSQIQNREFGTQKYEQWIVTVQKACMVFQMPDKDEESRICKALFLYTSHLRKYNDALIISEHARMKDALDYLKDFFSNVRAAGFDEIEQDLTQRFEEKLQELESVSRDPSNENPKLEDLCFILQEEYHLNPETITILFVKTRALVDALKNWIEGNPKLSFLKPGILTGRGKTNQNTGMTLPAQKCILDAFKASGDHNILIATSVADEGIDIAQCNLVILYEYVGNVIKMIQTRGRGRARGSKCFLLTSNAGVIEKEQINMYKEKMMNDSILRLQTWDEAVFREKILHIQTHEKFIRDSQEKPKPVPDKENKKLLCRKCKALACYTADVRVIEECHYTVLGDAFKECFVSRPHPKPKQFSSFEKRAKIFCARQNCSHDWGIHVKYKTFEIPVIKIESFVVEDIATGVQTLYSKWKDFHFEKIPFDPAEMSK
Experimental: Reporter activity was measured 16 h after compound treatment. A nonlinear regression analysis was performed. […] Circles indicate substitutes compared to C-176. d, e, Chemical compounds from (c) were tested at 0.5 µM for inhibitory activity in HEK293T cells transfected with STING (e) or RIG-I (f) in conjunction with IFN-• luciferase reporter, respectively. b, e, f, Values of inhibitor-treated cells were normalized to DMSO-treated cells. […] Cytokine levels were normalized to DMSO-treated control cells. A nonlinear regression analysis was performed for cGAMP stimulation. b, c, BMDMs were pre-treated with C-178 (0.25 µM) and stimulated with cGAMP, cyclic di-GMP, CMA, 90mer dsDNA or LPS for 3 h. The induction of Ifnb1 mRNA levels was assessed by RT-qPCR. d, Heatmaps of RNA sequencing analysis of BMDMs treated with DMSO or CMA and with or without addition of C-178. […] Reporter activity was measured 16 h after transfection and values were normalized to DMSO-treated control cells. c, BMDMs were treated with C-178 (0.25 µM) for 1 h, washed or left untreated and after an additional hour stimulated with cGAMP. […] Flag-STING was immunoprecipitated from whole cell lysate and analysed by autoradiography. In parallel, cell lysates were analysed by immunoblotting for p-TBK1 and STING. d, HEK293T cells expressing STING were treated as indicated (C-178 (1 µM)) and stimulated with CMA for 1.5 h. […]

O=C(Nc1ccc(I)cc1)c1ccc([N+](=O)[O-])o1 [C-176, N-(4-iodophenyl)-5-nitro-2-furamide]
TBK1-driven IFN induction (TBK1): neither RIG-I nor TBK1-driven IFN induction was affected
RIG-I-driven IFN induction (RIG-I): neither RIG-I nor TBK1-driven IFN induction was affected
